We go through 19 molecules from US20250114338A1, “TETRAHYDRO-PYRIDO[3,4-b]INDOLE ESTROGEN RECEPTOR MODULATORS AND USES THEREOF” (Genentech, Inc., priority 2014, published 2025).

In the assay the test system is ER-alpha MCF7. Description: ER-alpha MCF7 HCS EC50; stated as measured by in vitro cell proliferation assays of Examples 902 and 903. The format is cell-based. As to conditions: Homo sapiens, MCF7, MCF7 cells; Table 2. In outline: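 MCF7 cells seeded 1000-2000 cells/well for 16 h, then treated with nine-point 1:2 DMSO dilution series in quadruplicate at 37 °C, 5% CO2 for 4 days. Viable cells quantified by CellTiter-Glo ATP luminescence; EC50 calculated. Controls: fulvestrant at final 100 nM, DMSO 0.2% v/v.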

Some results are limits rather than exact numbers.

For the molecule `C[C@@H]1Cc2c([nH]c3ccccc23)[C@@H](c2c(F)cc(OCCN3CC(CF)C3)cc2F)N1C(=O)C1CNC1` [Example 182, azetidin-3-yl-[(1R,3R)-1-[2,6-difluoro-4-[2-[3-(fluoromethyl)azetidin-1-yl]ethoxy]phenyl]-3-methyl-1,3,4,9-tetrahydropyrido[3,4-b]indol-2-yl] methanone], the EC50 is > 100 nM.

Turning to `C[C@@H]1Cc2c([nH]c3ccccc23)[C@@H](c2c(F)cc(OCCN3CC(CF)C3)cc2F)N1C(=O)C1CC1F` (stereo partly drawn) [Example 183, ((1R,3R)-1-(2,6-difluoro-4-(2-(3-(fluoromethyl)azetidin-1-yl)ethoxy)phenyl)-3-methyl-3,4-dihydro-1H-pyrido[3,4-b]indol-2(9H)-yl)(2-fluorocyclopropyl)methanone], the EC50 came out at 4 nM.

With `C[C@@H]1CCN([C@@H](C)COc2cc(F)c([C@@H]3c4[nH]c5ccccc5c4C[C@@H](C)N3CC(C)(C)F)c(F)c2)C1` [Example 184], the half-maximal effective concentration (EC50) worked out at 0.494 nM.

As for `C[C@@H]1Cc2c([nH]c3ccccc23)[C@@H](c2c(F)cc(OCCN3CC(CF)C3)cc2F)N1C(=O)c1ccccc1` [Example 185, [(1R,3R)-1-[2,6-difluoro-4-[2-[3-(fluoromethyl)azetidin-1-yl]ethoxy]phenyl]-3-methyl-1,3,4,9-tetrahydropyrido[3,4-b]indol-2-yl]-phenyl-methanone], the EC50 came to 14 nM.

For `C[C@@H]1Cc2c([nH]c3ccccc23)[C@@H](c2c(F)cc(OCCN3CC(CF)C3)cc2F)N1CC1CC1` [Example 186, (1R,3R)-2-(cyclopropylmethyl)-1-[2,6-difluoro-4-[2-[3-(fluoromethyl)azetidin-1-yl]ethoxy]phenyl]-3-methyl-1,3,4,9-tetrahydropyrido[3,4-b]indole], the concentration giving a half-maximal response (EC50) is 2 nM.

`C[C@@H]1Cc2c([nH]c3ccccc23)[C@@H](c2c(F)cc(OC3CN(CCC4CC4)C3)cc2F)N1CC(C)(C)F` [Example 187, (1R,3R)-1-[4-[1-(2-cyclopropylethyl)azetidin-3-yl]oxy-2,6-difluoro-phenyl]-2-(2-fluoro-2-methyl-propyl)-3-methyl-1,3,4,9-tetrahydropyrido[3,4-b]indole]: the EC50 amounted to 1 nM.

With `C=CCN1CC(Oc2cc(F)c([C@@H]3c4[nH]c5ccccc5c4C[C@@H](C)N3CC(C)(C)F)c(F)c2)C1` [Example 188, (1R,3R)-1-[4-(1-allylazetidin-3-yl)oxy-2,6-difluoro-phenyl]-2-(2-fluoro-2-methyl-propyl)-3-methyl-1,3,4,9-tetrahydropyrido[3,4-b]indole], the EC50 was 0.128 nM.

Consider `C[C@@H]1Cc2c([nH]c3ccccc23)[C@@H](c2c(F)cc(OC3CN(CC4CCC4)C3)cc2F)N1CC(C)(C)F` [Example 189, (1R,3R)-1-[4-[1-(cyclobutylmethyl)azetidin-3-yl]oxy-2,6-difluoro-phenyl]-2-(2-fluoro-2-methyl-propyl)-3-methyl-1,3,4,9-tetrahydropyrido[3,4-b]indole], for which the EC50 was 1 nM.

For `CC(C)CCN1CC(Oc2cc(F)c([C@@H]3c4[nH]c5ccccc5c4C[C@@H](C)N3CC(C)(C)F)c(F)c2)C1` [Example 190, (1R,3R)-1-[2,6-difluoro-4-(1-isopentylazetidin-3-yl)oxy-phenyl]-2-(2-fluoro-2-methyl-propyl)-3-methyl-1,3,4,9-tetrahydropyrido[3,4-b]indole], the EC50 stood at 2 nM.

For the molecule `CCC(C)CN1CC(Oc2cc(F)c([C@@H]3c4[nH]c5ccccc5c4C[C@@H](C)N3CC(C)(C)F)c(F)c2)C1` (stereo partly drawn) [Example 191, (1R,3R)-1-(2,6-difluoro-4-((1-(2-methylbutyl)azetidin-3-yl)oxy)phenyl)-2-(2-fluoro-2-methylpropyl)-3-methyl-2,3,4,9-tetrahydro-1H-pyrido[3,4-b]indole], the EC50 is 0.267 nM.

For the molecule `CCCC(C)N1CC(Oc2cc(F)c([C@@H]3c4[nH]c5ccccc5c4C[C@@H](C)N3CC(C)(C)F)c(F)c2)C1` (stereo partly drawn) [Example 192, (1R,3R)-1-(2,6-difluoro-4-((1-(pentan-2-yl)azetidin-3-yl)oxy)phenyl)-2-(2-fluoro-2-methylpropyl)-3-methyl-2,3,4,9-tetrahydro-1H-pyrido[3,4-b]indole], the concentration for a half-maximal effect (EC50) came out at 1 nM.

As to `C[C@@H]1Cc2c([nH]c3ccccc23)[C@@H](c2c(F)cc(OC3CN(C4CCC4)C3)cc2F)N1CC(C)(C)F` [Example 193, (1R,3R)-1-[4-(1-cyclobutylazetidin-3-yl)oxy-2,6-difluoro-phenyl]-2-(2-fluoro-2-methyl-propyl)-3-methyl-1,3,4,9-tetrahydropyrido[3,4-b]indole], the 50% effective concentration (EC50) was 0.484 nM.

Consider `C[C@@H]1Cc2c([nH]c3ccccc23)[C@@H](c2c(F)cc(OC3CN(C4COC4)C3)cc2F)N1CC(C)(C)F` [Example 194, (1R,3R)-1-[2,6-difluoro-4-[1-(oxetan-3-yl)azetidin-3-yl]oxy-phenyl]-2-(2-fluoro-2-methyl-propyl)-3-methyl-1,3,4,9-tetrahydropyrido[3,4-b]indole], for which the EC50 was 0.077 nM.

As to `C[C@@H]1Cc2c([nH]c3ccccc23)[C@@H](c2c(F)cc(OC3CN(C4CC4)C3)cc2F)N1CC(C)(C)F` [Example 195, (1R,3R)-1-[4-(1-cyclopropylazetidin-3-yl)oxy-2,6-difluoro-phenyl]-2-(2-fluoro-2-methyl-propyl)-3-methyl-1,3,4,9-tetrahydropyrido[3,4-b]indole], the EC50 worked out at 0.165 nM.

In the case of `C[C@@H]1Cc2c([nH]c3ccccc23)[C@@H](c2c(F)cc(SC3CN(CCCF)C3)cc2F)N1CC(C)(C)F` [Example 196, (1R,3R)-1-[2,6-difluoro-4-[1-(3-fluoropropyl)azetidin-3-yl]sulfanyl-phenyl]-2-(2-fluoro-2-methyl-propyl)-3-methyl-1,3,4,9-tetrahydropyrido[3,4-b]indole], the EC50 stood at 0.271 nM.

Turning to `CC(C)CN1[C@H](c2c(F)cc(OCCN3CC(CF)C3)cc2F)c2[nH]c3ccccc3c2C[C@H]1C` [Example 197, (1R,3R)-1-[2,6-difluoro-4-[2-[3-(fluoromethyl)azetidin-1-yl]ethoxy]phenyl]-2-isobutyl-3-methyl-1,3,4,9-tetrahydropyrido[3,4-b]indole], the EC50 came to 1 nM.

For `C[C@@H]1Cc2c([nH]c3ccccc23)[C@@H](c2c(F)cc(OCCN3CC(CF)C3)cc2F)N1C[C@H](C)c1ccccc1` [Example 198, (1R,3R)-1-(2,6-difluoro-4-(2-(3-(fluoromethyl)azetidin-1-yl)ethoxy)phenyl)-3-methyl-2-((R)-2-phenylpropyl)-2,3,4,9-tetrahydro-1H-pyrido[3,4-b]indole], the concentration giving a half-maximal response (EC50) stood at 2 nM.

As to `C[C@H](CN1[C@H](c2c(F)cc(OCCN3CC(CF)C3)cc2F)c2[nH]c3ccccc3c2C[C@H]1C)c1ccccc1` [Example 199, (1R,3R)-1-(2,6-difluoro-4-(2-(3-(fluoromethyl)azetidin-1-yl)ethoxy)phenyl)-3-methyl-2-((S)-2-phenylpropyl)-2,3,4,9-tetrahydro-1H-pyrido[3,4-b]indole], the EC50 is 2.32 nM.

Take `CCCN1CC(Oc2cc(F)c([C@@H]3c4[nH]c5ccccc5c4C[C@@H](C)N3CC(C)C)c(F)c2)C1` [Example 200, (1R,3R)-1-[2,6-difluoro-4-(1-propylazetidin-3-yl)oxy-phenyl]-2-isobutyl-3-methyl-1,3,4,9-tetrahydropyrido[3,4-b]indole]: the EC50 stood at 0.408 nM.
